The values below come from US20030044413A1, “Methods of limiting apoptosis of cells” (Regents of the University of Minnesota, priority 1998, published 2003).

Where two headings read alike, the source gives them in different places.

Usually inhibition stands for the drop in the measured response relative to a control, in per cent.

Data set [1] has as its system HuH-7 cells. In words: Annexin V-biotin assay (phosphatidylserine externalization). Format: cell-based, human. The conditions noted are these: 100 μM, 6 h. The procedure: Annexin V-Biotin assay. The annexin V-biotin apoptosis assay was performed on HuH-7 cells according to the manufacturer's recommendations (R & D Systems). […] The chromogenic signal generated from the binding of annexin V to exposed phosphatidylserine moieties was read at 450 nm using a microplate reader (Molecular Devices, Co., Menlo Park, Calif.).

For a further data set, the system named is rat primary hepatocytes. The data set can be described thus: FACS analysis of ΔΨm and ROS, rat primary hepatocytes. Format: cell-based. The conditions noted are these: for Peroxides Production (%) Inducer + UDCA: 100 μM UDCA pretreatment 60 min; for inhibition at 100 µM: Rattus norvegicus, Hepatocyte, 100 μM UDCA, read-out: % Inhibition of peroxides production; for Inhibition % Superoxide Anion / Inhibition % _Ψm: inhibition by UDCA. The procedure: (§1) A ΔΨm and ROS measurement. ΔΨm and ROS production were measured by FACScan (Becton Dickinson) analysis. Freshly isolated rat hepatocytes were cultured for 3 h as described above and then incubated with William's E medium supplemented with either 100 μM DCA, 100 μM UDCA, equal molar amounts of both, or no bile acid (control), for 6 h. Rat hepatocytes were also cultured with either 1% ethanol, 100 μM UDCA, ethanol+UDCA, or no addition (control) for 4 h. HuH-7 cells, Hep G2 cells, and human osteogenic sarcoma Saos-2 cells were incubated with TGF-β1, anti-Fas antibody or okadaic acid, respectively, for 48 h under the same conditions as outlined above. For combination studies, cells were pretreated with UDCA or hyodeoxycholic acid for 60 min prior to addition of DCA, ethanol, TGF-β1, anti-Fas antibody or okadaic acid. Aliquots of 1.0×10^6 cells were incubated for 15 min at 37° C. with 50 nM 3,3′-dihexyloxacarbocyanine iodide [DiOC6(3)], 2 μM dihydroethidium (HE), or 5 μM 2′,7′-dichlorofluorescin diacetate (H2DCFDA; Molecular Probes, Inc. Eugene, Oreg.) and analyzed by cytofluorometry (Cathcart et al., Anal. Biochem., 134, 111-116 (1983); Zamzami et al., J. Exp. Med., 181, 1661-1672 (1 995); Carter et al., J. Leukocyte Biol., 55, 253-258 (1994)).
(§2) Rat primary hepatocytes were incubated with 100 μM DCA and 1% ETOH for 6 h and 4 h, respectively; HuH-7 cells with 1 nM TGF-β1 for 48 h; Hep G2 cells with 0.5 μg/ml anti-Fas antibody (CH-11) for 48 h, and Saos-2 cells with 50 nM okadaic acid (OA) for 48 h. In each combination group, cells were pretreated with 100 μM UDCA alone for 60 min prior to addition of the inducer. Aliquots of 1.0×10^6 cells were incubated for 15 min at 37° C. with 5 μM 2′,7′-dichlorofluorescin diacetate (H2DCFDA) and analyzed by cytofluorometry.
For orientation: A flow cytometer gives signals particle by particle.

The subject of data set [2] is HuH-7 cells. The data set can be described thus: FACS analysis of ΔΨm and ROS, HuH-7 cells. Format: cell-based, human. As for the experimental part: as §1, §2
For data set [3], the system named is Saos-2 cells. The data set can be described thus: Okadaic acid-induced apoptosis, Saos-2 cells. Format: cell-based, human. The procedure:
(§3) Incubation of cells with ethanol, TGF-β1, anti-Fas antibody or okadaic acid. Freshly isolated rat hepatocytes were cultured for 3 h as described above and then incubated with William's E medium supplemented with either 0.5% ethanol, 50 μM UDCA, ethanol plus UDCA, or no addition (control) for 2 h and 4 h. HuH-7 cells were incubated with Dulbecco's medium supplemented with either 1 nM TGF-β1 (R & D Systems, Minneapolis, Minn.), 100 μM UDCA, TGF-β1+UDCA, or no addition (control) for 24 h, 48 h, and 72 h. Hep G2 cells were incubated with Dulbecco's medium supplemented with either 0.5 μg/ml of anti-Fas antibody CH-11 (Upstate Biotechnology, Inc., Lake Placid, N.Y.), 100 μM UDCA, CH-11+UDCA, or no addition for 48 h. Both HuH-7 cells and human osteogenic sarcoma Saos-2 cells were cultured in Dulbecco's medium supplemented with either 50 nM okadaic acid (Boehringer Mannheim Biochemicals, Inc, Indianapolis, Ind.), 100 μM UDCA, okadaic acid+UDCA, or no addition for 48 h. In all the combination groups, cells were pretreated with UDCA alone for 60 min prior to addition of ethanol, TGF-β1, anti-Fas antibody or okadaic acid.
Morphological evaluation of apoptosis. Morphology was performed as described previously (Oberhammer et al., Proc. Natl. Acad. Sci. USA 89, 5408-5412 (1992)). Briefly, after fixation (with 4% formaldehyde in PBS, pH 7.4, for 10 min at room temperature), the cells were incubated with Hoechst dye 33258 (Sigma Chemical Co.) at 5 μg/ml in PBS for 5 min, washed with PBS and mounted with PBS:glycerol (3:1, v/v). Fluorescence was visualized with a Zeiss standard fluorescence microscope (Carl Zeiss, Inc., Thornwood, N.Y.). Photographs were taken with Kodak Ektar-1000 film (Eastman Kodak Co.). Stained nuclei were scored by blind analysis and categorized according to the condensation and staining characteristics of chromatin. Normal nuclei were identified as noncondensed chromatin dispersed over the entire nucleus. […] Three fields per dish of approximately 500 nuclei were counted; mean values are expressed as the percent of apoptotic nuclei.

Data set [4] concerns Saos-2 cells. In words: FACS analysis of ΔΨm and ROS, Saos-2 cells. Format: cell-based, human. The procedure: as §1, §2
Data set [5] can be described thus: Nuclear bile acid concentration in livers of fed rats. The class given is in vivo, rat.
The subject of data set [6] is HuH-7 cells. In words: Okadaic acid-induced apoptosis, HuH-7 cells. The class given is cell-based, human. The conditions noted are these: 48 h. As for the experimental part:
as §3, with “In all the combination groups, cells were pretreated with UDCA alone for 60 min prior to addition of ethanol, TGF-β1, anti-Fas antibody or okadaic acid.” left out
Morphological evaluation of apoptosis. […] Fluorescence was visualized with a Zeiss standard fluorescence microscope (Carl Zeiss, Inc., Thornwood, N.Y.). […] Stained nuclei were scored by blind analysis and categorized according to the condensation and staining characteristics of chromatin. […] Three fields per dish of approximately 500 nuclei were counted; mean values are expressed as the percent of apoptotic nuclei.

Data set [7] concerns hepatocytes, HuH-7, Hep G2 and Saos-2 cells. In words: FACS analysis of ΔΨm and ROS, summary over all cell types. Format: cell-based. The conditions noted are these: coadministration of UDCA with the inducers, range over cell types. The procedure: as §1
The next data set concerns cytochrome c. In words: Cytochrome c release from isolated mitochondria after MPT. Set-up: species or system rat. The conditions noted are these: substance alone on isolated mitochondria.
The mark [8] stands for this setting: inducer TGF-β1, HuH-7, inhibition by UDCA.
Where [9] appears, read: inducer OA, Saos-2, inhibition by UDCA.

Method for cytochrome c: Mitochondria isolation. […] In short, animals were sacrificed by exsanguination under ether anesthesia and the livers removed and rinsed in normal saline. Approximately 10 g of minced liver was homogenized at a speed of 800 rpm using 6 complete up and down strokes with a speed controlled mechanical skill drill and a teflon pestle (Tri-R Model K41, Tri-R Instruments, Rockville Center, N.Y.) in an ice-cold solution of 70 mM sucrose, 220 mM mannitol, 1 mM EGTA and 10 mM HEPES, pH 7.4 as a 10% (wt/vol) homogenate. The homogenate was centrifuged at 600×g for 10 min at 4° C. in an SS-34 rotor in a Sorvall RC5C centrifuge (Sorvall Instruments, Newtown, Conn.), and the postnuclear supernatant was centrifuged at 7,000×g for 10 min at 4° C. […] The pellet was resuspended in 2 mL of homogenate buffer, and 1 mL of the resuspended pellet was carefully layered onto a 35-mL self-generating gradient containing 0.25 M sucrose, 1 mM EGTA and percoll (Pharmacia Fine Chemicals, Piscataway, N.J.) (75:25, vol/vol). The mitochondria were purified by centrifugation at 43,000×g for 30 min at 4° C. using a Beckman Ti60 rotor and a Beckman ultracentrifuge model L8-55 (Beckman Instruments, Inc., Schaumburg, Ill.). The clear supernatant solution removed and the lower turbid layer was resuspended in 30 mL of wash buffer containing 0.1 M KCl, 5 mM 3-(N-morpholino)-propane sulfonic acid (MOPS), and 1 mM EGTA, at pH 7.4 and centrifuged at 7,000×g for 10 min at 4° C. The resulting mitochondria pellet was washed in wash buffer two times. A final wash was carried out in chelex-100-treated buffer (Bio-Rad Laboratories, Richmond, Va.; 200-400 mesh, potassium form) without EGTA. The pellet was suspended in 4 mL of chelex-100-treated resuspension buffer containing 125 mM sucrose, 50 mM KCl, 5 mM HEPES, and 2 mM KH2PO4. The usual yield of mitochondria was approximately 25 mg of protein per gram of liver tissue. Mitochondria were used for experiments within 3 h of isolation. Aliquots were removed for examining the purity of the mitochondria preparation.
Measurement of MPT and determination of cytochrome c content in supernatants and mitochondrial pellets after MPT. The MPT was assessed using a spectrophotometric assay measuring high amplitude rapid changes in mitochondria volume. Mitochondria (1 mg protein) were incubated in 1 ml of chelex-100-treated respiration buffer (0.1 M NaCl, 10 mM MOPS, pH 7.4) for 10 min at 25° C. and swelling was monitored at 540 nm in a Beckman DU 64 spectrophotometer. […] Basal values of mitochondria absorbance were measured for 5 min, and the optical density was monitored for an additional 5 min after addition 200 μM DCA or 80 μM phenylarsine oxide (PhAsO; Sigma Chemical Co.). […]

Turning to `C[C@H](CCC(=O)O)[C@H]1CC[C@H]2[C@@H]3CC[C@@H]4C[C@H](O)CC[C@]4(C)[C@H]3C[C@H](O)[C@]12C` [DCA, deoxycholic acid], the “optical density at 450 nm (annexin V binding) relative to controls” value in the data set on HuH-7 cells [1] is 0.27±0.06. In addition, the “Peroxides Production (%) Inducer” value in the data set with rat primary hepatocytes (100 μM DCA, 6 h, hepatocytes) is listed as 12.8 ± 0.9%.

Regarding `C[C@H](CCC(=O)O)[C@H]1CC[C@H]2[C@@H]3[C@@H](O)C[C@@H]4C[C@H](O)CC[C@]4(C)[C@H]3CC[C@]12C` [UDCA, ursodeoxycholic acid], the “Peroxides Production (%) Inducer + UDCA” value in the data set on HuH-7 cells [2] (1 nM TGF-β1 48 h, 100 μM UDCA pretreatment 60 min) is 5.8 ± 2.9 %; in the data set with rat primary hepatocytes (100 μM DCA 6 h), 4.4 ± 1.5 %; in the data set on rat primary hepatocytes (1% ETOH 4 h), 10.7 ± 3.6 %; in the data set on Saos-2 cells [4] (50 nM OA 48 h, 100 μM UDCA pretreatment 60 min), 5.4 ± 1.5 %. Besides, the inhibition at 100 µM in the data set with HuH-7 cells [2] (Homo sapiens, inducer TGF-β1, HuH-7, 100 μM UDCA, read-out: % Inhibition of peroxides production) is 47.3 ± 16%; in the data set on rat primary hepatocytes (inducer DCA, hepatocytes), 65.8 ± 12.4%; in the data set on rat primary hepatocytes (inducer ETOH, hepatocytes), 39.5 ± 12.6%; in the data set with Saos-2 cells [4] (Homo sapiens, inducer OA, Saos-2, 100 μM UDCA, read-out: % Inhibition of peroxides production), 64.6 ± 7.5%. Also, the “Inhibition % Superoxide Anion” value in the data set with HuH-7 cells [2] (setting [8]) came out at 69.9 ± 15.6%; in the data set with rat primary hepatocytes (inducer DCA, hepatocytes) it was 93.5 ± 17.2%; in the data set on rat primary hepatocytes (inducer ETOH, hepatocytes) it was 86.6 ± 5.6%; with Saos-2 cells [4] (setting [9]) it was 77.6 ± 18.1%. In addition, the “Inhibition % _Ψm” value with HuH-7 cells [2] (setting [8]) came out at 45.0 ± 21.7%; in the data set on rat primary hepatocytes (inducer DCA, hepatocytes), 60.2 ± 6.1 %; in the data set with rat primary hepatocytes (inducer ETOH, hepatocytes) it was 61.7 ± 33.9%; in the data set with Saos-2 cells [4] (setting [9]), 21.9 ± 10.7 %. Further, in the data set with HuH-7 cells [1], the “optical density at 450 nm (annexin V binding) relative to controls” value amounted to 0.08±0.02. The “reduction of the apoptotic response” value with Saos-2 cells [3] (50 nM okadaic acid + 100 μM UDCA, 48 h) is listed as above 80%; with HuH-7 cells [6] (50 nM okadaic acid + 100 μM UDCA), above 80%. In addition, in the data set on Saos-2 cells [3] (setting [9]), the “Inhibition % Apoptosis” value is 81.8 ± 2.3%. Moreover, the “share of the total nuclear bile acid concentration” value in data set [5] (UDCA feeding) was found to be 91.4%. The “concentration in nuclei relative to cytoplasmic levels” value in data set [5] (livers from control and DCA fed rats) was above 20 fold. In [7], the “decrease in superoxide anion production” value is given as 55-93%. In [7], the “inhibition of increase in other ROS” value is 39-65%. In [7], the “inhibition of ΔΨm disruption” value is reported as 21-63%.

In the case of `C=C1[C@@H](O)[C@@H]2O[C@]3(CC[C@H](/C=C/[C@@H](C)[C@@H]4CC(C)=C[C@@]5(O[C@H](C[C@@](C)(O)C(=O)O)CC[C@H]5O)O4)O3)CC[C@H]2O[C@@H]1[C@@H](O)C[C@H](C)[C@H]1O[C@@]2(CCCCO2)CC[C@H]1C` [okadaic acid], the “translocation of cytochrome c to the supernatants” value with cytochrome c is given as “nor did they cause translocation of cytochrome c”. Further, the apoptosis induced with Saos-2 cells [3] (50 nM okadaic acid, 48 h) is above 30%; in the data set on HuH-7 cells [6] (50 nM okadaic acid), above 30%. For the same molecule, the “Peroxides Production (%) Inducer” value with Saos-2 cells [4] (50 nM OA, 48 h, Saos-2) is on record as 15.0 ± 1.1%.

On to “TGF-β1: transforming growth factor β1, nonmembrane damaging inducer of apoptosis”, for which the “Peroxides Production (%) Inducer” value in the data set with HuH-7 cells [2] (1 nM TGF-β1, 48 h, HuH-7) is listed as 11.0 ± 2.9%. Further, the “translocation of cytochrome c to the supernatants” value in the data set with cytochrome c is recorded as “nor did they cause translocation of cytochrome c”.
